The values below come from patent publication US20050186274A1, “Multilayer tablet” (Boehringer Ingelheim International GmbH, priority 2004, published 2005).

Data set [1] is described as follows: Dissolution rate of HCTZ from tablet matrix. The note with it: from a dissolving matrix as compared with dissolution from a disintegrating tablet. It counts as physicochemical.
The conditions of data set [2]: physiological pH range of the gastrointestinal tract, pH 1 to 7; free acid form; cited from earlier work.

As to `NS(=O)(=O)c1cc2c(cc1Cl)NCNS2(=O)=O` [HCTZ, 6-chloro-3,4-dihydro-2H-1,2,4-benzothiadiazine-7-sulfonamide-1,1-dioxide], the “dissolution rate of HCTZ” value in data set [1] was “reduced dissolution rate”. As for `CCCc1nc2c(C)cc(-c3nc4ccccc4n3C)cc2n1Cc1ccc(-c2ccccc2C(=O)O)cc1` [Telmisartan, 4′-[2-n-propyl-4-methyl-6-(1-methylbenzimidazol-2-yl)-benzimidazol-1-ylmethyl]-biphenyl-2-carboxylic acid], the “solubility in aqueous systems” value in data set [2] was “very poor solubility”.
